In ChEMBL document CHEMBL1132091, “Synthesis and biological activity of substituted bis-(4-hydroxyphenyl)methanes as N-type calcium channel blockers” (Bioorg Med Chem Lett, 1999):

Key:
[1] = target: T1, Voltage-dependent N-type calcium channel subunit alpha-1B (Homo sapiens, UniProt Q00975); assay: Inhibition of N-type calcium channels in IMR-32 human neuroblastoma cells; type: functional, cell-based
Target sequence in this assay (Q00975 whole entry): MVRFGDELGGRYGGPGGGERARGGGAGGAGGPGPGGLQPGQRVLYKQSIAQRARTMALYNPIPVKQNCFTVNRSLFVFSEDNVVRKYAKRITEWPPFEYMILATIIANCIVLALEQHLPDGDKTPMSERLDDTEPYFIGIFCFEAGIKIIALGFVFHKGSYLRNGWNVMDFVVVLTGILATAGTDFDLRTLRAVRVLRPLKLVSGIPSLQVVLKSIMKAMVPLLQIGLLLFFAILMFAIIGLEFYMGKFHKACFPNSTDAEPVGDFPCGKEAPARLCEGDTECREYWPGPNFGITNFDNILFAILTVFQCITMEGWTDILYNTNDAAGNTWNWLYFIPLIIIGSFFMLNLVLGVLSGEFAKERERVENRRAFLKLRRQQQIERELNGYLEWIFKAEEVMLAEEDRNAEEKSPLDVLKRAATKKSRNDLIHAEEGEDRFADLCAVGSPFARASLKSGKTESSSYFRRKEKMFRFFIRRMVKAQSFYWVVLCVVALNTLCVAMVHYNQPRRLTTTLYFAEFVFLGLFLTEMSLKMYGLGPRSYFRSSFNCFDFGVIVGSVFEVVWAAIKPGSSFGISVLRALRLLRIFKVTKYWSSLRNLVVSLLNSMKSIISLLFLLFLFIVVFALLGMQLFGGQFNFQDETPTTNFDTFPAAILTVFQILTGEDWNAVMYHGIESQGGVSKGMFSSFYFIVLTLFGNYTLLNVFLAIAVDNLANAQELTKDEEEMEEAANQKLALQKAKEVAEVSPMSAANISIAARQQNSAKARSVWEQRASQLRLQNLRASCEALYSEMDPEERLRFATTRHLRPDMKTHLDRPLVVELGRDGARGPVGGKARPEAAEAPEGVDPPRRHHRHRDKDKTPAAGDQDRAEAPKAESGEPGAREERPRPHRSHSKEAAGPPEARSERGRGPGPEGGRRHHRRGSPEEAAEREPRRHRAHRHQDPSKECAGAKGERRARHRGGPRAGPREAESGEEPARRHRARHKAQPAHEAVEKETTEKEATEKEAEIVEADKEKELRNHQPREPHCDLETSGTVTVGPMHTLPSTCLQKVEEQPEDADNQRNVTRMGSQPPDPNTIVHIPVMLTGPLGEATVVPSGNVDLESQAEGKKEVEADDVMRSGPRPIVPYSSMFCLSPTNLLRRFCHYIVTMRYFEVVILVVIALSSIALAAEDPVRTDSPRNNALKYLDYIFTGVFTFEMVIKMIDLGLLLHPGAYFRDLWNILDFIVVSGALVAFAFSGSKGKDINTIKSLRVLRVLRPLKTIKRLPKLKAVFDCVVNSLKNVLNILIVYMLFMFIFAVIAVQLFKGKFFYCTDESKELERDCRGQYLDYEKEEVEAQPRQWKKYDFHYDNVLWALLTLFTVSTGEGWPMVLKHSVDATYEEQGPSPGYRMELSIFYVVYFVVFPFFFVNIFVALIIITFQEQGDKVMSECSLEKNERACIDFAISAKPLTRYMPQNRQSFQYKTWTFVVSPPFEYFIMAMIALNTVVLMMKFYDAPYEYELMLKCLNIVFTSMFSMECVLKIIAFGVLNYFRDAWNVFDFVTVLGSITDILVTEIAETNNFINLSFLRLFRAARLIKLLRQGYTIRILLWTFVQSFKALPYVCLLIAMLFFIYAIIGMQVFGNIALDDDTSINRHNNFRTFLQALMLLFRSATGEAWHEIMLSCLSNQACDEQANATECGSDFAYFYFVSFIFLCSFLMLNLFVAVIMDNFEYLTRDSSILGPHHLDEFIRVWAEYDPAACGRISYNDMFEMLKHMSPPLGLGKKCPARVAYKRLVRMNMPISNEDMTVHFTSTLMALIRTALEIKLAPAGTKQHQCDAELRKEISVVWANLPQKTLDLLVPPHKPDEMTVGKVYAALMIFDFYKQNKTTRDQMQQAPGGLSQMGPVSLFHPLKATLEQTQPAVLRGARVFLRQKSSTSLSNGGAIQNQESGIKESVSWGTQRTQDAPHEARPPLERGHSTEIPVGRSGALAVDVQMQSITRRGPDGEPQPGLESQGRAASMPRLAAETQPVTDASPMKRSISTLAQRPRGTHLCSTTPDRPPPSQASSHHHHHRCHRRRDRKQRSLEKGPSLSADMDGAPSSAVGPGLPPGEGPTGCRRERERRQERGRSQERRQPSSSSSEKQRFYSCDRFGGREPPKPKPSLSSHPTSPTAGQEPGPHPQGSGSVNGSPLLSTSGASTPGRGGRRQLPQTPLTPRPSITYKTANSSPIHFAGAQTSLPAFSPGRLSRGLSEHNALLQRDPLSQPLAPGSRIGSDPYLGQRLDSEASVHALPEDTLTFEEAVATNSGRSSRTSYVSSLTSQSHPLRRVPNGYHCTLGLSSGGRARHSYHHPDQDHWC

[2] = target: Voltage-gated L-type calcium channel (Rattus norvegicus, UniProt P22002+Q02485+P27732); assay: Inhibition of L-type calcium channels in GH-3 rat pituitary cells; type: functional, cell-based; settings: pituitary gland cell
[3] = Blockade of K+ channels in SCG neurons at 10 uM; type: functional; settings: Rattus norvegicus
[4] = Blockade of Na+ channels in SCG neurons at 10 uM; type: functional; settings: Rattus norvegicus
[5] = target: T1, Voltage-dependent N-type calcium channel subunit alpha-1B; assay: Inhibition of N-type calcium channel in IMR-32 human neuroblastoma cell; type: functional
Target sequence in this assay (Q00975 whole entry): as above

[6] = target: T1, Voltage-dependent N-type calcium channel subunit alpha-1B; assay: Inhibition of N-type calcium channels in IMR-32 human neuroblastoma cells at 10 uM; type: functional, cell-based
Target sequence in this assay (Q00975 whole entry, looked up): as the sequence (Q00975 whole entry) above

Row | Compound | IC50 [1] | IC50 [2] | inhibition at 10 µM [3] | inhibition at 10 µM [4] | IC50 [5] | inhibition [6]
1 | Oc1c(/C=N\C2CCCCC2)ccc2cnccc12 | 35 µM |  |  |  |  | 
2 | CC(CCC(O)(c1ccccc1)c1ccccc1)(c1ccc(O)c(CN2CCCCCC2)c1)c1ccc(O)c(CN2CCCCCC2)c1 |  | 0.9 µM | 61% | 78% |  | 
3 | CC(C)(c1ccc(O)c(CN2CCCCCC2)c1)c1ccc(O)c(CN2CCCCCC2)c1 |  | 2 µM | 77% | 81% | 0.97 µM | 
4 | O=C(NCC(c1ccc(O)c(CN2CCCCCC2)c1)c1ccc(O)c(CN2CCCCCC2)c1)C(c1ccccc1)c1ccccc1 |  |  |  |  | 1.8 µM | 
5 | CC(CCCN(Cc1ccccc1)Cc1ccccc1)(c1ccc(O)c(CN2CCCCCC2)c1)c1ccc(O)c(CN2CCCCCC2)c1 |  | 4.1 µM | 28% | 24% |  | 
6 | CC(CCC(O)(c1ccccc1)c1ccccc1)(c1ccc(O)cc1)c1ccc(O)c(CN2CCCCCC2)c1 (configuration not stated) |  |  |  |  | 1.8 µM | 
7 | CC(CCC(=O)N(Cc1ccccc1)Cc1ccccc1)(c1ccc(O)cc1)c1ccc(O)cc1 |  |  |  |  |  | -6%
8 | CC(CCC(c1ccccc1)c1ccccc1)(c1ccc(O)c(CN2CCCCCC2)c1)c1ccc(O)c(CN2CCCCCC2)c1 |  | 9.1 µM | 18% | 5% |  | 
